One may read the IC50 as the concentration that gives 50% inhibition.

The target of experiment [1] is T1, NPY Y2 receptor (Homo sapiens, UniProt P49146).
T1 sequence (P49146 1-381): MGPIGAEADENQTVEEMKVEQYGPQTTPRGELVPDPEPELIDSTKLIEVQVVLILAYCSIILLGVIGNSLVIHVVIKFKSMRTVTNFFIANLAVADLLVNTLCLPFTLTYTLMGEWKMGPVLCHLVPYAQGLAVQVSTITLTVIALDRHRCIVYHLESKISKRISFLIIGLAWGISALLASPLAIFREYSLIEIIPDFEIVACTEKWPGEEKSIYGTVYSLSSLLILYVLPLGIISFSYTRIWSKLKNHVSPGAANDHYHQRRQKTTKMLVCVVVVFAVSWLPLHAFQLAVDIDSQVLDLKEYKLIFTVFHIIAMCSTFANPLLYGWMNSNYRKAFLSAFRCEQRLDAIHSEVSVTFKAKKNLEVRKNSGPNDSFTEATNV
As to the kind of experiment: Neuropeptide Y2 pKB assay (FLIPR, KAN-Ts cells stably expressing chimeric G proteins). The settings on record: apparent pKB, modified Cheng-Prusoff correction. The experiment is classed as cell-based. On the procedure: The assay was performed using the fluorimetric imaging plate reader (FLIPR) format as described in Dautzenberg, F. M., Biochemical Pharmacology 2005, 69, 1493.
KAN-Ts cells stably expressing chimeric G proteins were seeded at a density of 100,000 cells into poly-d-lysine coated 384-well blackwall, clear-bottom microtiter plates (Corning, N.Y.). One day later, the medium was removed and 50 μl loading medium DMEM high glucose, without serum, supplemented with 10 mM HEPES-acid, 0.1% BSA, 5 mM probenecid and 2 μM Fluo-3AM was added. Cells were loaded for 1 h at 37° C., washed twice with 50 μl assay buffer (5 mM HEPES-acid, 140 mM NaCl, 1 mM MgCl2, 5 mM KCl, 10 mM glucose) and then 30 μl assay buffer was added. Cells were further pre-incubated at room temperature before adding agonists or agonists plus antagonists in 20 μl assay buffer and then measured on a T-channel fluorometric imaging plate reader (FLIPR, Molecular Devices, Sunnyvale, Calif.). Antagonistic potency values were converted to apparent pKB values using a modified Cheng-Prusoff correction. Apparent pKB was calculated as pKB=−log IC50/1+[conc agonist/EC50].

Experiment [2] addresses T1, NPY Y2 receptor. As to the kind of experiment: Neuropeptide Y2 radioligand binding assay ([125I]PYY, KAN-Ts membranes). Details: endogenous in cells; host or cells: KAN-Ts cells (membrane preparation). The settings on record: for IC50: KAN-Ts membranes endogenously expressing Y2, [125I]PYY (80 pM), 1 h at rt; for Ki: apparent Ki=IC50/(1+C/KD). In short, it runs like this:
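Membranes from KAN-Ts cells with endogenous Y2 receptors, incubated with 80 pM [125I]PYY ± compound for 1 h at rt in HEPES/NaCl/CaCl2/MgSO4 buffer, then filtered and counted. Nonspecific binding defined with […]. IC50 from sigmoidal fit; Ki = IC50/(1+C/KD).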

Each structure is given as a SMILES string.

For the molecule `CCC(CC)C(=O)Nc1ccc(N2CCN(C(c3ccccc3)c3ncco3)CC2)c(F)c1` (centres unmarked) [Compound 20, 2-Ethyl-N-{3-fluoro-4-[4-(oxazol-2-yl-phenyl-methyl)-piperazin-1-yl]-phenyl}-butyramide], on NPY Y2 receptor [1], the Kb is 50.1 nM. The half-inhibitory concentration (IC50) at NPY Y2 receptor [2] worked out at 40 nM.
Regarding `CCC(CC)C(=O)Nc1ccc(N2CCN(C(c3ccccc3)c3ncccn3)CC2)c(F)c1` (centres unmarked) [Compound 40, 2-Ethyl-N-{3-fluoro-4-[4-(phenyl-pyrimidin-2-yl-methyl)-piperazin-1-yl]-phenyl}-butyramide], the Kb at NPY Y2 receptor [1] is 100 nM. The IC50 at NPY Y2 receptor [2] worked out at 52 nM.
Take `CC[C@@H](C)C(=O)Nc1ccc(N2CCN(C(c3ccccc3)c3ncco3)CC2)c(F)c1` (stereo in doubt) [Compound 91, N-{3-Fluoro-4-[4-(oxazol-2-yl-phenyl-methyl)-piperazin-1-yl]-phenyl}-2-methyl-butyramide]: the Kb at NPY Y2 receptor [1] is 158 nM. In addition, the IC50 at NPY Y2 receptor [2] is 240 nM.
Regarding `CCC(CC)C(=O)Nc1ccc(N2CCN(C(c3cccc(F)c3)c3ncco3)CC2)c(F)c1` (centres unmarked) [Compound 132, 2-Ethyl-N-(3-fluoro-4-{4-[(3-fluoro-phenyl)-oxazol-2-yl-methyl]-piperazin-1-yl}-phenyl)-butyramide], on NPY Y2 receptor [1], the Kb was 63.1 nM. On NPY Y2 receptor [2], the IC50 is 45 nM.
For `CCC(CC)C(=O)Nc1ccc(N2CCN(C(c3ccccc3)c3ncco3)CC2)c(Br)c1` (centres unmarked) [Compound 237, N-{3-Bromo-4-[4-(oxazol-2-yl-phenyl-methyl)-piperazin-1-yl]-phenyl}-2-ethyl-butyramide], the Kb at NPY Y2 receptor [1] is 63.1 nM. Moreover, the half-maximal inhibitory concentration (IC50) on NPY Y2 receptor [2] came out at 16 nM.
For the molecule `CCC(CC)C(=O)Nc1ccc(N2CCN(C(c3ccccc3)c3ccncc3)CC2)c(C#N)c1` (centres unmarked) [Compound 315, N-{3-Cyano-4-[4-(phenyl-pyridin-4-yl-methyl)-piperazin-1-yl]-phenyl}-2-ethyl-butyramide], the Kb at NPY Y2 receptor [1] was 50.1 nM. At NPY Y2 receptor [2], the Ki is 4.4 nM.
Consider `CCC(CC)C(=O)Nc1ccc(N2CCN(C(c3ccccc3)c3cc(C)no3)CC2)c(F)c1` (centres unmarked) [Compound 230, 2-Ethyl-N-(3-fluoro-4-{4-[(3-methyl-isoxazol-5-yl)-phenyl-methyl]-piperazin-1-yl}-phenyl)-butyramide], for which the Kb at NPY Y2 receptor [1] is 25.1 nM. For the same molecule, the concentration for half-maximal inhibition (IC50) at NPY Y2 receptor [2] was 12 nM.
The like results for `CCC(CC)C(=O)Nc1ccc(N2CCN(C(c3ccccc3)c3nnc(C(CC)CC)o3)CC2)c(F)c1` (centres unmarked) [Compound 163, 2-Ethyl-N-[4-(4-{[5-(1-ethyl-propyl)-[1,3,4]oxadiazol-2-yl]-phenyl-methyl}-piperazin-1-yl)-3-fluoro-phenyl]-butyramide] were, in that order, 100 nM and 20 nM.
In the case of `CCC(CC)C(=O)Nc1ccc(N2CCN(C(c3ccccc3)c3nnc(C(C)C)o3)CC2)c(F)c1` (centres unmarked) [Compound 160, 2-Ethyl-N-(3-fluoro-4-{4-[(5-isopropyl-[1,3,4]-oxadiazol-2-yl)-phenyl-methyl]-piperazin-1-yl}-phenyl)-butyramide], the Kb on NPY Y2 receptor [1] was 100 nM. The molecule also came in with a concentration for half-maximal inhibition (IC50) on NPY Y2 receptor [2] of 43 nM.
For `CCC(CC)C(=O)Nc1ccc(N2CCN(C(c3ccccc3)c3ccccc3)CC2)c(C#N)c1` [Compound 304, N-[4-(4-Benzhydryl-piperazin-1-yl)-3-cyano-phenyl]-2-ethyl-butyramide], on NPY Y2 receptor [1], the Kb is 501 nM. For the same molecule, the Ki at NPY Y2 receptor [2] stood at 4.7 nM.
Regarding `CCc1nnc(C(c2ccccc2)N2CCN(c3ccc(NC(=O)C(CC)CC)cc3F)CC2)o1` (centres unmarked) [Compound 153, 2-Ethyl-N-(4-{4-[(5-ethyl-[1,3,4]-oxadiazol-2-yl)-phenyl-methyl]-piperazin-1-yl}-3-fluoro-phenyl)-butyramide], at NPY Y2 receptor [1], the Kb was 39.8 nM. On NPY Y2 receptor [2], the IC50 worked out at 39 nM.
In the case of `CCC(CC)C(=O)Nc1ccc(N2CCN(C(c3ccccc3)c3noc(-c4cccnc4)n3)CC2)c(F)c1` (centres unmarked) [Compound 238, 2-Ethyl-N-(3-fluoro-4-{4-[phenyl-(5-pyridin-3-yl-[1,2,4]-oxadiazol-3-yl)-methyl]-piperazin-1-yl}-phenyl)-butyramide], at NPY Y2 receptor [1], the Kb was 31.6 nM. At NPY Y2 receptor [2], this molecule gave a concentration for half-maximal inhibition (IC50) of 25 nM.
As for `CCC(CC)C(=O)Nc1ccc(N2CCN(C(c3ccccc3)c3nc4ccccc4o3)CC2)c(C#N)c1` (centres unmarked) [Compound 166, N-{4-[4-(Benzooxazol-2-yl-phenyl-methyl)-piperazin-1-yl]-3-cyano-phenyl}-2-ethyl-butyramide], the Kb on NPY Y2 receptor [1] was 79.4 nM. Further, on NPY Y2 receptor [2], the half-maximal inhibitory concentration (IC50) was 7 nM.
Regarding `CCC(CC)C(=O)Nc1ccc(N2CCN(C(c3ccccc3)c3nc4ccccc4s3)CC2)c(C#N)c1` (centres unmarked) [Compound 169, N-{4-[4-(Benzothiazol-2-yl-phenyl-methyl)-piperazin-1-yl]-3-cyano-phenyl}-2-ethyl-butyramide], the Kb at NPY Y2 receptor [1] is 50.1 nM. The molecule further had a concentration for half-maximal inhibition (IC50) on NPY Y2 receptor [2] of 39 nM.
As for `CCc1noc(C(c2ccccc2)N2CCN(c3ccc(NC(=O)C(CC)CC)cc3F)CC2)n1` (centres unmarked) [Compound 1, 2-Ethyl-N-(4-{4-[(3-ethyl-[1,2,4]-oxadiazol-5-yl)-phenyl-methyl]-piperazin-1-yl}-3-fluoro-phenyl)-butyramide], on NPY Y2 receptor [1], the Kb was 35.5 nM. For the same molecule, on NPY Y2 receptor [2], the IC50 turned out to be 27 nM.
For `CCC(CC)C(=O)Nc1ccc(N2CCN(C(c3ccccc3)c3nc4ccccc4o3)CC2)c(F)c1` (centres unmarked) [Compound 165, N-{4-[4-(Benzooxazol-2-yl-phenyl-methyl)-piperazin-1-yl]-3-fluoro-phenyl}-2-ethyl-butyramide], at NPY Y2 receptor [1], the Kb was 100 nM. The molecule also registered an IC50 at NPY Y2 receptor [2] of 18 nM.
Consider `CCc1nc(C(c2ccccc2)N2CCN(c3ccc(NC(=O)C(CC)CC)cc3F)CC2)no1` (centres unmarked) [Compound 236, 2-Ethyl-N-(4-{4-[(5-ethyl-[1,2,4]-oxadiazol-3-yl)-phenyl-methyl]-piperazin-1-yl}-3-fluoro-phenyl)-butyramide], for which, on NPY Y2 receptor [1], the Kb was 15.8 nM. This molecule also gave an IC50 at NPY Y2 receptor [2] of 23 nM.
Consider `CCC(CC)C(=O)Nc1ccc(N2CCN(C(c3ccccc3)c3ccccc3C)CC2)c(C#N)c1` (centres unmarked) [Compound 305, N-{3-Cyano-4-[4-(phenyl-o-tolyl-methyl)-piperazin-1-yl]-phenyl}-2-ethyl-butyramide], for which the Kb on NPY Y2 receptor [1] is 316 nM. Also, the Ki at NPY Y2 receptor [2] turned out to be 36 nM.
On to `CCC(CC)C(=O)Nc1ccc(N2CCN(C(c3ccccc3)c3ccccc3)CC2)c(F)c1` [Compound 4, N-[4-(4-Benzhydryl-piperazin-1-yl)-3-fluoro-phenyl]-2-ethyl-butyramide], for which the Kb on NPY Y2 receptor [1] was 79.4 nM. Also, at NPY Y2 receptor [2], the 50% inhibitory concentration (IC50) came to 33 nM.
On the same counts, the results for `CCC(CC)C(=O)Nc1ccc(N2CCN(C(c3ccccc3)c3noc(C(C)C)n3)CC2)c(F)c1` (centres unmarked) [Compound 82, 2-Ethyl-N-(3-fluoro-4-{4-[(5-isopropyl-[1,2,4]-oxadiazol-3-yl)-phenyl-methyl]-piperazin-1-yl}-phenyl)-butyramide] are 50.1 nM and 22 nM.
Take `CCC(CC)C(=O)Nc1ccc(N2CCN(C(c3cccc(F)c3)c3ncco3)CC2)c(C#N)c1` (centres unmarked) [Compound 131, N-(3-Cyano-4-{4-[(3-fluoro-phenyl)-oxazol-2-yl-methyl]-piperazin-1-yl}-phenyl)-2-ethyl-butyramide]: the Kb at NPY Y2 receptor [1] is 12.6 nM. This molecule showed a concentration for half-maximal inhibition (IC50) on NPY Y2 receptor [2] of 7 nM.
With `CCC(CC)C(=O)Nc1ccc(N2CCN(C(c3ccccc3)c3ncco3)CC2)c(F)c1` (single isomer, unassigned) [Compound 60, 2-Ethyl-N-{3-fluoro-4-[4-(oxazol-2-yl-phenyl-methyl)-piperazin-1-yl]-phenyl}-butyramide], the Kb at NPY Y2 receptor [1] is 63.1 nM. Further, on NPY Y2 receptor [2], the concentration for half-maximal inhibition (IC50) was 34 nM.
For `N#Cc1cc(NC(=O)C2CC2)ccc1N1CCN(C(c2ccccc2)c2cccnc2)CC1` (centres unmarked) [Compound 321, Cyclopropanecarboxylic acid {3-cyano-4-[4-(phenyl-pyridin-3-yl-methyl)-piperazin-1-yl]-phenyl}-amide], the Kb on NPY Y2 receptor [1] is 31.6 nM. The Ki on NPY Y2 receptor [2] amounted to 11 nM.
For the molecule `CC(CC(F)(F)F)C(=O)Nc1ccc(N2CCN(C(c3ccccc3)c3ncco3)CC2)c(C#N)c1` (centres unmarked) [Compound 110, N-{3-Cyano-4-[4-(oxazol-2-yl-phenyl-methyl)-piperazin-1-yl]-phenyl}-4,4,4-trifluoro-2-methyl-butyramide], the Kb on NPY Y2 receptor [1] is 100 nM. On NPY Y2 receptor [2], this molecule gave an IC50 of 29 nM.
With `N#Cc1cc(NC(=O)[C@@H]2CCOC2)ccc1N1CCN(C(c2ccccc2)c2ncco2)CC1` (some centres unmarked) [Compound 90, Tetrahydro-furan-3-carboxylic acid {3-cyano-4-[4-(oxazol-2-yl-phenyl-methyl)-piperazin-1-yl]-phenyl}-amide], the Kb at NPY Y2 receptor [1] is 31.6 nM. The 50% inhibitory concentration (IC50) at NPY Y2 receptor [2] was 38 nM.

Values taken from patent publication US20120129870A1, “PIPERAZINYL DERIVATIVES USEFUL AS MODULATORS OF THE NEUROPEPTIDE Y2 RECEPTOR” (priority 2007, published 2012).
